In US12115182B2, “Adenosine A2A agonists for the treatment of cytokine storm syndrome” (priority 2021, dated 2024):
“Also recorded” adds a separate entry of the source.

Key:
Type in all cases: in vivo, human
[1] = Plasma levels of regadenoson in COVID-19 patients (LC-MS); settings: loading dose then 1.44 μg/kg/hr for 6 hours
Protocol: (§1) In cohort 1 of this trial, we tested the safety, tolerability, and toxicity of regadenoson in 5 COVID-19 patients (WHO stages 4-5) receiving supplemental oxygen without mechanical ventilation. All subjects received an infused loading dose of 5.0 μg/kg up to a maximum of 400 μg over 30 minutes, followed by a maintenance dose of 1.44 μg/kg/hr for 6 hours. Toxicity of regadenoson was graded by using Common Terminology for Adverse Events Criteria. Vital signs, pulse oximetry, arterial blood gas, laboratory studies, and electrocardiograms were performed on a schedule commensurate with level of care to identify potential risk of the study drug during and 12 hours post infusion. The trial was monitored by an NIH designated DSMB. Peripheral blood samples were collected at 4 timepoints. Along with clinical monitoring, plasma levels of cytokines (14-plex Luminex panel) were measured at various time points. Cytokine data were analyzed by SAS 9.5 PROC MIXED. Activation of peripheral blood mononuclear cells including iNKT cells was analyzed by flow cytometry. Flow cytometry data were analyzed by FCS Express 7 Research edition and GraphPad Prism v9. The plasma levels of regadenoson were determined via liquid chromatography-mass spectrometry.

[2] = Plasma levels of regadenoson in lung transplant recipients (LC-MS/MS)
Protocol: The peripheral blood samples for regadenoson measurement were collected at the following timepoints: 1) Prior to 1st lung reperfusion; 2) 1 hour post 1st lung perfusion; 3) 6 hours post infusion start; 4) 12 hours post infusion start; 5) 24 hours post infusion start. The blood samples were centrifuged, and the plasma samples were collected and stored at −80° C. The levels of regadenoson were determined via liquid chromatography-mass spectrometry with an improved d protocol based on our previous publication (LAU et al., J Heart Lung Transplant, (2020), 39:563-570) at The Mass Spectrometry Center at the School of Pharmacy, University of Maryland, Baltimore (detailed in supplemental methods).
Chemicals and Reagents. Regadenoson (purity 99.83%) was purchased from Selleckchem (Houston, TX, USA) and Regadenoson-d3 ((purity 99.68%) used as internal standard (IS) was obtained from Toronto Research Chemicals, (North York, ON, CT). Optima LC/MS grade water (H2O), methanol, and formic acid (FA) were purchased from Fisher Scientific (Pittsburgh, PA, USA).
Calibration Standards. 1 mg/ml stock solutions of Regadenoson and Regadenoson-d3 were prepared in Dimethyl sulfoxide (DMSO) and further working solutions to spike in plasma were prepared in methanol and water (70:30, v/v). Calibration standards (STD) in plasma ranged from 0.05 ng/ml to 50 ng/ml (8 points: 0.05, 0.1, 1, 5, 20, 30, 40, and 50 ng/ml). Quality control (QC) samples at 3 concentration levels (0.15 ng/ml, LQC; 25 ng/ml, MQC; and 45 ng/ml, HQC) were also prepared in plasma. Internal standard solution (Regadenoson-d3; 250 ng/ml) was prepared in methanol and water (70:30, v/v).
Sample Preparation. 50 μL of plasma sample (STD/QC/test sample) was added into a 2 ml centrifuge tube containing 20 μL of IS solution (250 ng/ml) and mixed well. Next, 500 μL of acetonitrile was added, shaken for 3 min at 2100 rpm, and centrifuged for 10 min at 15000 rpm. 400 μL of supernatant was transferred to glass tube and dried under a steady stream of nitrogen at 35° C. The sample was re-suspended in 100 μL of 0.1% formic acid in H2O: 0.1% formic acid in methanol (1:1 v/v) and injected (3 μl) into LC-MS/MS system.
Liquid Chromatography Tandem Mass Spectrometry (LC-MS/MS). LC-MS/MS analysis was performed on a TSO Altis Triple Stage Quadrupole Mass Spectrometer coupled to an Ultimate 3000 RS Liquid Chromatogram system (Thermo Scientific, San Jose, CA). The LC separation was performed on a BEH C18 column (2.1×50 mm, 1.7 μm) (Waters Corporations, Milford, MA) operated at 30° C. Mobile phase solvent A and B consisted of 0.1% FA in H2O and 0.1% FA in methanol, respectively. The gradient program started with 35% B; followed by a linear gradient to 50% Bin 0.7 min; maintained 50% B until 1.5 min; followed by a linear gradient back to 35% B in 2 min and maintained until 3 min. The flow rate was set at 0.22 ml/min. The retention time of Regadenoson and the IS was 1.09 min, and the total run time was 3 min.
Detection was performed in the positive-ion mode using electrospray ionization (ESI). Source parameters were as follows: spray voltage, 3500; Ion transfer tube temperature, 350; vaporizer temperature, 300; sheath gas pressure, 50; auxiliary gas pressure, 10; and sweet gas, 1. The compound parameters: collision energy (CE), and RF lens were 35 and 77 V, respectively for Regadenoson and the IS. Selected reaction monitoring (SRM) was used for mass detection with the following transitions: Regadenoson (m/z 391.1-259.2; quant) and (m/z 391.1-228.1; qual), Regadenoson-d3 (m/z 394.0-262.2; quant) and (m/z 394.0-228.2; qual). Data collection and analysis was performed by Xcalibur V 2.1 (Thermo Scientific, San Jose, CA).
Analytical parameters: The linear range is 0.05-50 ng/mL in human plasma. Samples that exceeded the upper limit of quantification were diluted 2 or 4 fold and reinjected.

COVID-19 patients = experiment: Regadenoson infusion in hospitalized COVID-19 patients: safety and clinical monitoring; settings: for toxicities / side effects (nausea): during infusion or 30 days of follow-up; for SpO2: before vs 24 hours after RA infusion, pulse oximetry, N=5; for blood pressure: during and post RA infusion
Protocol: as §1
Consented Covid-19 patients were treated with RA administered intravenously using a pediatric infusion pump at a loading dose rate of 5 μg/kg/hr for 30 min followed by a maintenance dose of 1.44 μg/kg/hr for 6 hours. Subjects' vital signs including oxygen saturation (SpO2), blood pressure, heart rate and respiratory rate were monitored throughout RA infusion.
Blood samples were drawn as a source of peripheral blood mononuclear cells (PBMCs). Cells were frozen in 10% DMSO and thawed for analysis of live cells by flow cytometry. Cytokines, CRP, and D dimer levels were measured in plasma. Blood samples were collected just prior to the start of RA infusion (0 hr), just prior to the end of the loading dose (30 min), 4 hours into the maintenance dose (4.5 hr), and the next day (24 hr).

CNC(=O)c1cnn(-c2nc(N)c3ncn([C@@H]4O[C@H](CO)[C@@H](O)[C@H]4O)c3n2)c1 [Regadenoson]
median peak plasma levels of regadenoson [1]: 14.24 ng/mL | peak plasma levels of regadenoson, range [1]: 3.64 to 78.64 ng/mL | median peak plasma levels of regadenoson ([2]; 1.44 ug/kg/hour for 12 hours, preliminary result before dose alteration): 1.68 ng/mL | levels of regadenoson in blood ([2]; after 24 hours post regadenoson infusion): minimal | time of peak drug level post infusion start ([2]; high dose group, 2.88 ug/kg/hr for 12 hours): 12 h | median peak plasma levels of regadenoson ([2]; high dose, 2.88 ug/kg/hr): 14.34 ng/mL | time of peak drug level post infusion start ([2]; low dose group, 1.44 ug/kg/hr for 12 hours): 6 h | median peak plasma levels of regadenoson ([2]; low dose, 1.44 ug/kg/hr): 1.30 ng/mL | toxicities / side effects (nausea) (COVID-19 patients; 5 COVID-19 patients): Transient and self-limiting nausea was reported by a single subject | toxicities / side effects (nausea) (COVID-19 patients; 5 COVID-19 patients, listed as RA): 1 case of transient self-limiting nausea, but no other toxicities or reportable side effects | serious adverse events (COVID-19 patients; 5 COVID-19 patients, loading dose 5.0 μg/kg over 30 minutes, maintenance 1.44 μg/kg/hr for 6 hours): No serious adverse events were observed | time to discharge (COVID-19 patients; 5 patients, all recovered): 3 to 9 days | D dimer levels (COVID-19 patients; 24 hours post RA infusion, n=5): significantly decreased | SpO2 after the RA infusion (COVID-19 patients; Case 3, 88% on admission): 97% | SpO2 (COVID-19 patients): significantly less (P<0.05) than 24 hours after treatment; also recorded: statistically significant difference | SpO2 (COVID-19 patients; listed as RA): significantly further elevated | blood pressure (COVID-19 patients; n=5): no significant changes | blood pressure (COVID-19 patients; n=5, listed as RA): remain stable | CRP levels reduced by (COVID-19 patients; in 3 of 4 patients, 24 hours after RA infusion): > 50% | vital signs (COVID-19 patients; throughout the infusion and 12 hours post infusion): stable | subjective symptoms (COVID-19 patients; within 24 hours of RA treatment): subjective improvement in all subjects
